# Target: T1, TgPKA-C (T. gondii PKA catalytic subunit; ToxoDB TGGT1_081170) (Toxoplasma gondii, UniProt Q58G65)
# T1 construct: gene PKA2; entire ORF (343 amino acid residues), GST fusion, wheat germ cell-free expression
# Assay: in vitro radiometric kinase assay ([γ-32P]ATP, Histone IIAS substrate) with purified GST-TgPKA-C
# Format: biochemical
# T1 sequence (Q58G65 entry or part of it): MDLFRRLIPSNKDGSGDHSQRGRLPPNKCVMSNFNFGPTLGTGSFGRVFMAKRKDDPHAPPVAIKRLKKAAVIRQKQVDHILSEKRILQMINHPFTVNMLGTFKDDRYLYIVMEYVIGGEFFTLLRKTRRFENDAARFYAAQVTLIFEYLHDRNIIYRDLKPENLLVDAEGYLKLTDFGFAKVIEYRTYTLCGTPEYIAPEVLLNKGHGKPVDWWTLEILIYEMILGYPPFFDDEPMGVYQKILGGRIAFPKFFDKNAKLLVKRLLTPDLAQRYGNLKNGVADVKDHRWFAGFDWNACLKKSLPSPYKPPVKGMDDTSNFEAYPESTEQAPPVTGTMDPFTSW
smiles,measurement,value
"O=S(=O)(NCCNC/C=C/c1ccc(Br)cc1)c1cccc2cnccc12 [H89, N-[2-(p-bromocinnamylamino)ethyl]-5-isoquinolinesulfonamide]",IC50,175 µM

# From paper PMC3140512, “Identification of Toxoplasma gondii cAMP Dependent Protein Kinase and Its Role in the Tachyzoite Growth” (PLoS ONE, 2011)
